We go through five compounds from patent publication US8049035B2, “Crystalline potassium salt of lipoxin A4 analogs” (Bayer Pharma AG, priority 2006, dated 2011).

Structures can show the parent of a compound that is named as a salt.

Type in all cases: physicochemical
A short description of data set [1]: Salt screening assays of the acid (IIa): stability of the salts. The text has this: The following describes the salt screening assays in more detail:
Many inorganic cations were investigated to determine their ability to form a stable crystalline salt of the acid (IIa), including potassium, sodium, calcium, aluminium, magnesium, lithium, and zinc.
Several organic amines were investigated, including N-methylglucamine, diethanolamine, ethylenediamine, choline, lysine, and arginine.
In addition to the foregoing, it was investigated to form a mixed salt of the acid of Formula (IIa) with polyvalent inorganic cations and organic acids.
In general, the salt screening assay included the variability of the following different test parameters:
i) Type of cation-compound utilized (e.g., as carbonates, hydroxides, methylates, ethylates).
ii) Type of solvent utilized.
iii) Specific addition or exclusion of water (to assist the formation of hydrates or anhydrates).
iv) Type of crystallization utilized (cooling crystallization, antisolvent crystallization, or evaporation crystallization, and combinations thereof).
v) Type of screening (manual screening as well as high throughput screening).

Data set [2] is described as follows: Chemical stability of solid state forms under stress at 40° C./75% rH over 4 weeks (HPLC purity). The note with it: for HPLC-purity: 40° C./75% RH; for chemical stability under stress (in words): 40° C./75% rH. The procedure:
The chemical stability of the anhydrate and the monohydrate of the potassium salt of Formula (Ia) of the invention as well as the dehydrated form I of the potassium salt (Ia) of the invention were assessed by comparing the stability under stress at 40° C./75% rH over a period of 4 weeks.

Data set [3] in a line: Dynamic vapor sorption / hygroscopicity studies (automated water sorption analyzer). The note with it: 25° C.; for relative humidity up to which the form is stable: sorption cycle. The procedure:
The transformation of the monohydrate to the dihydrate form and vice versa occurs quickly and is well defined at 25° C. and at 40° C. This was shown by dynamic vapor sorption investigations. For example, during pre-drying of the monohydrate at 25° C. and 0% relative humidity, 4.0% water is released from the monohydrate. […] Between 20% and 40% relative humidity, one mole of water is absorbed, resulting in the formation of the monohydrate. The monohydrate is stable up to approximately 50% relative humidity and then is transformed into the dihydrate by absorption of a second mole of water between 50% and 60% relative humidity. The dihydrate is the stable form up to 98% relative humidity at 25° C. During the desorption cycle between 40% and 50% relative humidity, the transformation into the monohydrate takes place. The formed monohydrate is existent up to 10% relative humidity. Between 0% and 10% relative humidity the dehydration of the monohydrate to the dehydrated form II occurs. No significant differences between the two cycles were observed.
The hygroscopicity with respect to the transformation of the monohydrate and dihydrate was re-investigated between 45% and 55% relative humidity using smaller steps for the relative humidity. […] At 40° C. the reversible transformation between the monohydrate and the dihydrate is between 57% and 59% relative humidity, approximately 10% higher than at 25° C.
Also, the transformation of the anhydrate form of the potassium salt (Ia) to the hydrate form was shown by dynamic vapor sorption investigations at 25° C. Up to 40% relative humidity the anhydrate was stable. Between 40% and 60% relative humidity approximately two moles of water are absorbed, resulting in the formation of the dihydrate.
Data collection for the hygroscopicity studies was carried out in an automated water sorption analyzer. Approximately 20 mg of the investigated solid state form of the crystalline potassium salt (Ia) was exposed to a continuous flow of nitrogen with predetermined and constant relative humidity. The rate of sweep gas was set at 200 cm^3/min. For a basic assay, two full cycles (sorption/desorption) were measured at 25° C. The measurement was started at 0% relative humidity in order to remove surface water. Once the constant mass was achieved, the next humidity was automatically set. The water sorption/desorption was investigated in steps of 10% between 0% and 90% relative humidity under the criteria for initiation of the first step as set forth herein. Additionally, the sorption at about 98% relative humidity was investigated. Data was acquired using the DVSWin software. […]

In the case of `O=C(O)COC[C@H](O)[C@H](O)/C=C/C=C/C#C/C=C/[C@H](O)COc1ccc(F)cc1` [(Ia), potassium 2-((2S,3R,4E,6E,10E,12S)-13-(4-fluorophenoxy)-2,3,12-trihydroxytrideca-4,6,10-trien-6-ynyloxy)acetate], the “stability compared with other salts and the free acid (in words)” value in data set [1] is given as “substantially more stable than every other salt prepared”.

In the case of `O=C(O)COC[C@H](O)[C@H](O)/C=C/C=C/C#C/C=C/[C@H](O)COc1ccc(F)cc1` [K-salt, Monohydrate, potassium 2-((2S,3R,4E,6E,10E,12S)-13-(4-fluorophenoxy)-2,3,12-trihydroxytrideca-4,6,10-trien-6-ynyloxy)acetate], the results for the HPLC-purity in data set [2] (0 weeks (start)), in data set [2] (2 weeks) and in data set [2] (4 weeks) were 99.7%, 99.6% and 99.7%, respectively. Besides, the “chemical stability under stress (in words)” value in data set [2] (4 weeks) is recorded as “no sign of degradation”. Further, the “water released during pre-drying” value in data set [3] (0% relative humidity, gives dehydrated form II) is on record as 4.0%. Moreover, the “relative humidity up to which the form is stable” value (shortened to “relative humidity up”) in data set [3] is recorded as “approximately 50 % relative humidity”.

`O=C(O)COC[C@H](O)[C@H](O)/C=C/C=C/C#C/C=C/[C@H](O)COc1ccc(F)cc1` [K-salt, dehydrated form I, potassium 2-((2S,3R,4E,6E,10E,12S)-13-(4-fluorophenoxy)-2,3,12-trihydroxytrideca-4,6,10-trien-6-ynyloxy)acetate]: the HPLC-purity came out at 97.8% in data set [2] (0 weeks (start)), 97.1% in data set [2] (2 weeks) and 95.3% in data set [2] (4 weeks).

As for `O=C(O)COC[C@H](O)[C@H](O)/C=C/C=C/C#C/C=C/[C@H](O)COc1ccc(F)cc1` [dihydrate, potassium 2-((2S,3R,4E,6E,10E,12S)-13-(4-fluorophenoxy)-2,3,12-trihydroxytrideca-4,6,10-trien-6-ynyloxy)acetate], in data set [3], the “relative humidity up” value is given as “up to 98 % relative humidity”.

On to `O=C(O)COC[C@H](O)[C@H](O)/C=C/C=C/C#C/C=C/[C@H](O)COc1ccc(F)cc1` [K-salt, Anhydrate, potassium 2-((2S,3R,4E,6E,10E,12S)-13-(4-fluorophenoxy)-2,3,12-trihydroxytrideca-4,6,10-trien-6-ynyloxy)acetate], for which the HPLC-purity in data set [2] (0 weeks (start)) is 99.6%; in data set [2] (2 weeks), 99.7%; in data set [2] (4 weeks) it was 99.7%. For the same compound, the “chemical stability under stress (in words)” value in data set [2] (4 weeks) is “no sign of degradation”. The “relative humidity up” value in data set [3] was “Up to 40 % relative humidity”.
